Tests used:
[1] = test system: primary human tubular epithelial cell (HTEC); test: SA β Gal staining at pH6 in primary tubular epithelial cultures as a measure of senescence, with or without H2O2; type: cell-based; conditions: 10 ng/ml tacrolimus (FK); cells challenged with oxidant H2O2 (75 μM); FIG. 3
Method: HTEC culture. Primary HTEC cultures were grown at 37° C. 5% CO2 in DMEM/Glutamax-1/+ pyridoxine medium (Life technologies) plus […] ml^−1 Penstrep. Cells were stained for SA β Gal activity as described in Joosten et al 2003.
Building upon the rodent observations, the inventor has established a primary human tubular epithelial cell (HTEC) in vitro system to model and evaluate premature human renal senescence. […] This is shown in FIG. 3, which illustrates SA β Gal staining at pH6 in primary tubular epithelial cultures as a measure of senescence.
Cultures were grown ±100 ng/ml cyclosporin (cyc) or 10 ng/ml tacrolimus (FK) and evaluated with or without oxidising 75 μM H2O2 treatment.
This has profound implications for transplant outcome and current clinical practice.

[2] = patients treated after cadaveric renal transplantation; result not always reproducible; cited from earlier work

| Molecule | effect on oxidant stress, judged by SA β Gal staining at pH6 [1] | 1 and 4 year graft survival rate [2] | first acute rejection episodes [2] |
| --- | --- | --- | --- |
| C=CC[C@@H]1/C=C(\C)C[C@H](C)C[C@H](OC)[C@H]2O[C@@](O)(C(=O)C(=O)N3CCCC[C@H]3C(=O)O[C@H](/C(C)=C/[C@@H]3CC[C@@H](O)[C@H](OC)C3)[C@H](C)[C@@H](O)CC1=O)[C@H](C)C[C@@H]2OC [tacrolimus] | protect against the effects of oxidant stress | – | – |
| superoxide dismutase | – | significantly improved | reduction |

From patent US20050158721A1, “Tissue rejection” (priority 2002, published 2005)
